The record followed here is US20230118577A1, “NEUROACTIVE STEROIDS AND PHARMACEUTICAL COMPOSITION CONTAINING THE SAME” (Brii Biosciences, Inc., priority 2020, published 2023).

Test [1] concerns the target T1, GABAA α1β2γ2 (Homo sapiens, UniProt P14867+P47870).
T1 construct: expressed in transfected cells; host or cells: HEK293 expressing the Tetracycline repressor protein
Kind of test: Automated patch clamp electrophysiology (SyncroPatch), PAM mode, GABAA α1β2γ2 cell line. It counts as cell-based. To be noted: for Emax: maximum fold increase in current relative to Allopregnanolone, GABA EC20 14 μM, read-out: GABAA α1β2γ2 PAM % Emax (to Allo). An excerpt:
(§1) Cellular electrophysiology was used to measure the pharmacology properties of the GABA receptor modulators. The GABAA channels are expressed in stable cell lines described herein. The parental cell line used to express the human GABAA channels is the human embryonic kidney (HEK293) cell line expressing the Tetracycline repressor protein to support inducible expression of the target proteins.
(§2) For the GABAA α4β3δ cell line, the α4 and β3 subunits are under control of tetracycline inducible expression system, while the δ subunit is constitutively expressed. For the GABAA α1β2γ2 cell line, the α1 and β2 subunits are under control of tetracycline inducible expression system, whist the γ2 subunit is constitutively expressed.
(§3) Assessment of the compounds against GABAA α1β2γ2 and GABAA α4β3δ was performed using the SyncroPatch automated platform in positive allosteric modulator (PAM) mode. Six concentrations of 20 nM, 62 nM, 185 nM, 555 nM, 1667 nM and 5000 nM were tested across the plate, with a single concentration of compound per well. A minimum of 3 cells were obtained per each concentration of a compound.
(§4) Automated patch clamp-recordings were performed using the SyncroPatch 384PE. The voltage protocol generation and data collection were performed with PatchController384 V1.6.6 and Data Controller V1.6.0. A steady state voltage pulse at −80 mV was applied during the assay.
(§5) The stacked addition protocol was used, in which γ-aminobutyric acid (GABA) was rapidly applied and then washed off from the cell. To test for positive allosteric modulator activity (PAM), first the agonist GABA EC20 (EC20: 10 μM for GABAA α4β3δ channel and 14 μM GABA for the GABAA α1β2γ2 channel) was applied twice (with wash steps in-between) as a control and to show activation reproducibility, followed by a 1-2 minutes pre-incubation of the tested compound and then re-application of GABA EC20 in the presence of a testing compound. Finally, following a further wash step, maximum GABA (10 mM) was applied.
(§6) An Allopregnanolone concentration response was tested as the control PAM on the compound plates. The fold increase was generated using the following equation, (Icomp/Icontrol)−1, where Icomp is the current amplitude in the presence of the compound and Icontrol is the current amplitude in the presence of GABA EC20 alone. This builds an EC50 concentration-response curve, where 0 represents no PAM activity and >0 represents PAM activity.
(§7) A maximum % Emax for each compound is generated using the following equation, (IMaxComp/IAveMaxAllo)*100, where IMaxcomp is the individual maximum fold increase in current for each compound and IAveMaxAllo is the average maximum fold increase generated in the presence of Allopregnanolone. The resultant % Emax values are then averaged. The compound and Allopregnanolone values were obtained from separate cells which were tested in the same compound run. Two GABAA subtypes were tested against each of the compounds as well as the positive control, Allopregnanolone.
For orientation: In patch-clamp work, channel activity is measured electrically.

The target of test [2] is T2, GABAA α4β3δ (Homo sapiens, UniProt P28472+P48169).
T2 construct: expressed in transfected cells; host or cells: HEK293 expressing the Tetracycline repressor protein
T2 sequence (P48169 36-554): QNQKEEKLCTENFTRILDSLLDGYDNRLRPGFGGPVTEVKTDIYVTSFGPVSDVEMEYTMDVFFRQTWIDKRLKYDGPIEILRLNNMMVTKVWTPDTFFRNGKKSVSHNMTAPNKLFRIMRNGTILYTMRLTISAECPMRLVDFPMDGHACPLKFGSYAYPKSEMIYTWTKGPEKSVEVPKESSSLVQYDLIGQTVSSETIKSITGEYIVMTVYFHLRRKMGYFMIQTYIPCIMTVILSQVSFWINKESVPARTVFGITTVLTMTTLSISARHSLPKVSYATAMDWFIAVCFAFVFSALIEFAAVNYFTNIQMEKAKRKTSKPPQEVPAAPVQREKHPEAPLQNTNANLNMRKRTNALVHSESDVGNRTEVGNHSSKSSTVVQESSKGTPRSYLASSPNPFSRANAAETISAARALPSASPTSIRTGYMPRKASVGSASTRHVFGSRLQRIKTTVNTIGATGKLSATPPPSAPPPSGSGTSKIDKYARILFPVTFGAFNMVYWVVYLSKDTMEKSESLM
T2 sequence (P28472 26-473): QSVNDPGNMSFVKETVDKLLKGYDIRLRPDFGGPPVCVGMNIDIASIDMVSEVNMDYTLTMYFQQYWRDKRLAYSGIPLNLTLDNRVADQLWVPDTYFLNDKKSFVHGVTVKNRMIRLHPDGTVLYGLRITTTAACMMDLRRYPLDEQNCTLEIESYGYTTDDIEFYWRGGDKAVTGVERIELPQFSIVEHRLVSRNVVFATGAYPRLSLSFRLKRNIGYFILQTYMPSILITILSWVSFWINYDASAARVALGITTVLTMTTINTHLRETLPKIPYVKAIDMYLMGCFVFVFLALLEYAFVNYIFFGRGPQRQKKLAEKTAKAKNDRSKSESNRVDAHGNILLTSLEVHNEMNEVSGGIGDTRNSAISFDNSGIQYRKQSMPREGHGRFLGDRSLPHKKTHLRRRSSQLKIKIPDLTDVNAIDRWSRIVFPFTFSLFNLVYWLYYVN
T2 sequence (O14764 17-452 partner limits assumed): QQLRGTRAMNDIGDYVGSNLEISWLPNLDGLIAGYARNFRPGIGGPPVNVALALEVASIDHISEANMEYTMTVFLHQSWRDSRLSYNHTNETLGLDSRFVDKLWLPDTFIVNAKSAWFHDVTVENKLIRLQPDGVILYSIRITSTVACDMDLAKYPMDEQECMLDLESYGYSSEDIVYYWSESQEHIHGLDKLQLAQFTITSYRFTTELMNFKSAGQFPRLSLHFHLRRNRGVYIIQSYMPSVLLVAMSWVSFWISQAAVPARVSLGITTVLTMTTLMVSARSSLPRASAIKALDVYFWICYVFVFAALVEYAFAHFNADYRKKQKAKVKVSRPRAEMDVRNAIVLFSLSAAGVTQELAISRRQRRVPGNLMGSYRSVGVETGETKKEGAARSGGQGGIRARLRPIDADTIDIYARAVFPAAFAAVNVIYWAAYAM
Kind of test: Automated patch clamp electrophysiology (SyncroPatch), PAM mode, GABAA α4β3δ cell line. It counts as cell-based. The conditions noted are these: for Emax: maximum fold increase in current relative to Allopregnanolone, read-out: GABAA α4β3δ PAM % Emax (to Allo).
Excerpt: as §1, §2, §3, §4, §5, §6, §7

The mark [3] stands for this setting: PAM mode, HEK293 cells expressing human GABAA α1β2γ2, GABA EC20 14 μM, read-out: GABAA α1β2γ2 PAM EC50.
[4] abbreviates: PAM mode, HEK293 cells expressing human GABAA α4β3δ, GABA EC20 10 μM, read-out: GABAA α4β3δ PAM EC50.

The structures appear in SMILES notation. Like-named read-outs stand apart in the source and are kept apart here.

T1 sequence (P14867 28-456): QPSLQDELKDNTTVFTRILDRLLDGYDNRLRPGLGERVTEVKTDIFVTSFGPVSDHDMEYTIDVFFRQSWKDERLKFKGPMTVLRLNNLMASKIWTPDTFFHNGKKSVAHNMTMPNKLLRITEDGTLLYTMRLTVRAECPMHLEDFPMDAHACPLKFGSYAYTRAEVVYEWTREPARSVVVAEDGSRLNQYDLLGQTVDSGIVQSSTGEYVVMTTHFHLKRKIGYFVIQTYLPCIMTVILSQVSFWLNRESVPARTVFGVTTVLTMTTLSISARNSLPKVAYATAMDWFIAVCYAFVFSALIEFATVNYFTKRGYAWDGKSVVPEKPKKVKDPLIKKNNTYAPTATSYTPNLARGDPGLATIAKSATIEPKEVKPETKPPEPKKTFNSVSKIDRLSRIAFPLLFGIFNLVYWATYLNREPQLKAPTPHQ
T1 sequence (P47870 25-512 limits assumed): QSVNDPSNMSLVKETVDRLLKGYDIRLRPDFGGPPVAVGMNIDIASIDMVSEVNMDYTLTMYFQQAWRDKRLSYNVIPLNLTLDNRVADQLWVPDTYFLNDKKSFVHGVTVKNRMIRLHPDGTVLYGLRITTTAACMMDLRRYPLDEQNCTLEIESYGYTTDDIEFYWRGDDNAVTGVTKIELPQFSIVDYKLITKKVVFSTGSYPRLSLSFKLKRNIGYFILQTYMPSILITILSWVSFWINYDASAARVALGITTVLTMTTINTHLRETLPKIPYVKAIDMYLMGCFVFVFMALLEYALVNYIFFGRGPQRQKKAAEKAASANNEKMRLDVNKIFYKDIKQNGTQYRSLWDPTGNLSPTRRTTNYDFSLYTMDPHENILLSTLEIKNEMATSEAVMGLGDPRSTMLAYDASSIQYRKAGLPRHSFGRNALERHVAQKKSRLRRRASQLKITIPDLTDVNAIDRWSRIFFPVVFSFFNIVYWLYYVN
T1 sequence (P18507 40-475 partner): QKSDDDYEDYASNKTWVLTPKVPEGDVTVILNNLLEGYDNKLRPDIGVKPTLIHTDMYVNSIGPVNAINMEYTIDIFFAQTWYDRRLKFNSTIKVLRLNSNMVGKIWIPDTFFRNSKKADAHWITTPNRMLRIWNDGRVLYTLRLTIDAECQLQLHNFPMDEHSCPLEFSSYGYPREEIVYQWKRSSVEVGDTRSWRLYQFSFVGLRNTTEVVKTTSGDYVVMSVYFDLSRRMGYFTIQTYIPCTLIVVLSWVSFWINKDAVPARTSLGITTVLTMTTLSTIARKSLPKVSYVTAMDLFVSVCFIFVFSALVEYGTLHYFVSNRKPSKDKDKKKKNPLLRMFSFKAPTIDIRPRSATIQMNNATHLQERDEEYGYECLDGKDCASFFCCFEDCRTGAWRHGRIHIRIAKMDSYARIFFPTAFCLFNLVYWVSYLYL

For `C[C@@]1(O)CC[C@H]2[C@H](CC[C@@H]3[C@@H]2CC[C@]2(C)[C@@H](C4(CC(F)(F)F)COC4)CC[C@@H]32)C1` [Example 20, (3R,5R,8R,9R,10S,13S,14S,17S)-3,13-dimethyl-17-(3-(2,2,2-trifluoroethyl)oxetan-3-yl)-2,4,5,6,7,8,9,10,11,12,14,15,16,17-tetradecahydro-1H-cyclopenta[a]phenanthren-3-ol], the EC50 in test [1] (setting [3]) and in test [2] (setting [4]) was less than 500 nM each time. The maximal response (Emax) in test [1] (PAM mode) is greater than 90%; in test [2] (PAM mode, GABA EC20 10 μM) it was greater than 90%.

For `C[C@@]1(O)CC[C@H]2[C@H](CC[C@@H]3[C@@H]2CC[C@]2(C)[C@@H](C4(C5CC5)COC4)CC[C@@H]32)C1` [Example 21, (3R,5R,8R,9R,10S,13S,14S,17S)-17-(3-cyclopropyloxetan-3-yl)-3,13-dimethyl-2,4,5,6,7,8,9,10,11,12,14,15,16,17-tetradecahydro-1H-cyclopenta[a]phenanthren-3-ol], the half-maximal effective concentration (EC50) in test [1] (setting [3]) is 500 to 1000 nM; in test [2] (setting [4]), greater than 1500 nM. The Emax was greater than 90% in test [1] (PAM mode) and greater than 90% in test [2] (PAM mode, GABA EC20 10 μM).

With `C#CC1([C@H]2CC[C@H]3[C@@H]4CC[C@@H]5C[C@](C)(O)CC[C@@H]5[C@H]4CC[C@]23C)COC1` [Example 22, (3R,5R,8R,9R,10S,13S,14S,17S)-17-(3-ethynyloxetan-3-yl)-3,13-dimethyl-2,4,5,6,7,8,9,10,11,12,14,15,16,17-tetradecahydro-1H-cyclopenta[a]phenanthren-3-ol], the EC50 in test [1] (setting [3]) is less than 500 nM; in test [2] (setting [4]), greater than 1500 nM. Further, the Emax in test [1] (PAM mode) was greater than 90%; in test [2] (PAM mode, GABA EC20 10 μM), 50 to 90%.

For `C[C@@]1(O)CC[C@H]2[C@H](CC[C@@H]3[C@@H]2CC[C@]2(C)[C@@H](C4COC4)CC[C@@H]32)C1` [Example 23, (3R,5R,8R,9R,10S,13S,14S,17R)-17-(oxetan-3-yl)-3,13-dimethyl-2,4,5,6,7,8,9,10,11,12,14,15,16,17-tetradecahydro-1H-cyclopenta[a]phenanthren-3-ol], the concentration giving a half-maximal response (EC50) in test [1] (setting [3]) and in test [2] (setting [4]) was less than 500 nM throughout. The Emax in test [1] (PAM mode) was in the range of 50 to 90%; in test [2] (PAM mode, GABA EC20 10 μM) it was 50 to 90%.

With `CC(=O)[C@H]1CC[C@H]2[C@@H]3CC[C@H]4C[C@H](O)CC[C@]4(C)[C@H]3CC[C@]12C` [allopregnanolone, 5α-pregnane-3α-ol-20-one, reference compound], the EC50 in test [1] and in test [2] was less than 500 nM in each case. For the same molecule, the Emax in test [1] (PAM mode) is greater than 90%; in test [2] (PAM mode, GABA EC20 10 μM), greater than 90%.

A word on the EC50: it is the concentration giving half of the maximal effect. For orientation: Emax means the greatest response seen or fitted, relative to the assay's reference.
